Literature values as cited in patent US10154968B2, “Buprenorphine nanoparticle composition and methods thereof” (AUBURN UNIVERSITY, priority 2012, dated 2018).

CO[C@@]12CC[C@@]3(C[C@@H]1[C@](C)(O)C(C)(C)C)[C@H]1Cc4ccc(O)c5c4[C@@]3(CCN1CC1CC1)[C@H]2O5 [Buprenorphine, (25)-2-[(5R,6R,7R,145)-9α-Cyclopropylmethyl-4,5-epoxy-6,14-ethano-3-hydroxy-6-methoxymorphinan-7-yl]-3,3-dimethylbutan-2-ol]
half-life (background statement): approximately two
excreted unchanged in the urine (previous studies): 27%
